In patent publication US20220347144A1, “COMPOSITIONS AND METHODS FOR PREVENTING AND/OR REDUCING WEIGHT GAIN AND ASSOCIATED CONDITIONS” (University of Virginia Patent Foundation, priority 2019, published 2022):

Columns and labels:
Format in all cases: in vivo, mouse
C57Bl/6J mice [1] = test: Body weight over 12 weeks on the diets
Method: Animals. Animal experiments were approved by the Animal Care and Use Committee of the University of Virginia (Charlottesville, Va., United States of America). C57Bl/6J mice were obtained from Jackson Laboratories (Bar Harbor, Me., United States of America). Mice were group housed in standard cages with up to five mice per cage with a 12 hour dark/light cycle. All mice were weighed once per week. Weekly food consumption was measured, with the amount consumed per cage averaged amongst the mice in the cage. Body composition was determined by use of an ECHOMRI™-100H Body Composition Analyzer (EchoMRI LLC, Houston, Tex., United States of America).
Diets. Diets were obtained from Research Diets (New Brunswick, N.J., United States of America). The low fat chow was D12450Ji (10 kcal % fat) and the high fat chow was D12492 (60 kcal % fat). These two chows were reformulated by replacing a portion of dietary fat with an ethyl ester of nervonic acid from Nu-Chek Prep (Elysian, Minn., United States of America) to produce isocaloric diets with nervonic acid at 6 g per kg of diet (0.6%). For the three most prevalent fatty acids in these diets: C16 comprised 14.4%, 11.7%, 18.5%, and 18.1%; C18:1 comprised 27.4%, 22.8%, 32%, and 31.4%; and C18:2 comprised 39.6%, 36.2%, 26.9%, and 26.5% of the fatty acid composition of the Cnt, Cnt+NA, HFD, and HFD+NA diets, respectively. Mice were started on diets at ˜8 weeks of age and given ad libitum access.

C57Bl/6J mice [2] = test: Observation of overt toxicities in animals fed a NA-enriched diet
C57Bl/6J mice [3] = test: Insulin Tolerance Test (ITT)
Method: Insulin Tolerance Test (ITT) and Glucose Tolerance Test (GTT) and analysis of blood glucose and plasma insulin. ITT and GTT were performed as described in Lansey et al., 2012. Briefly, for ITT, random-fed mice were given an intraperitoneal injection (IP) of insulin (0.75 U/kg in 0.9% NaCl). Blood glucose levels were determined by a glucometer (Contour Next EZ Blood Glucose Monitoring System, Bayer, Leverkusen, Germany) at the indicated time points after injection. For GTT, mice were fasted for 16 hours prior to testing. D-Glucose, prepared the day before, was administered via an IP injection (1 g/kg), and blood glucose levels were determined by a glucometer at the indicated time points after injection. Plasma insulin levels were determined using a STELLUX® brand Chemi Rodent Insulin ELISA kit (Cat. No. 80-INSMR-CHO1; APLCO, Salem, N.H., United States of America) or an Ultrasensitive Rat/Mouse Insulin ELISA kit, Low Range Assay (Cat. No. 90060; Crystal Chem, Downers Grove, Ill., United States of America). The luminescence assay was conducted using a VICTOR2 Plate Reader (Perkin Elmer, Waltham, Mass., United States of America).

Substance: (Z)-tetracos-15-enoic acid [NA]
- body weight gain (C57Bl/6J mice [1]; HFD+NA versus HFD, 12 weeks): significantly less body weight gain
- body weights (C57Bl/6J mice [1]; HFD+NA versus control diet, 12 weeks): not significantly different
- body weight gains over time (C57Bl/6J mice [1]; NA-enriched control diet versus control diet): significantly less body weight gains over time
- overt toxicities (ruffled fur, anorexia, cachexia, skin tenting, skin ulcerations, diarrhea, death) (C57Bl/6J mice [2]): No overt toxicities
- response of blood glucose to insulin injection (C57Bl/6J mice [3]; HFD+NA, 11 weeks on diets): responded similarly to mice on control diets
- response of blood glucose to insulin injection (C57Bl/6J mice [3]; HFD+NA, 11 weeks on diets, listed as nervonic acid): responded similarly to mice on the control diet
- response of blood glucose to insulin injection (C57Bl/6J mice [3]; control diet containing NA): responded similar to mice on the control diet alone
- response of blood glucose to insulin injection (C57Bl/6J mice [3]; control diet containing NA, listed as nervonic acid): responded similar to the control diet
